Test in all cases: Quantitative drug diffusion (disc) assay per CLSI, zone of inhibition
Holding throughout (type): cell-based
Design in all cases: key to CLSI susceptibility interpretation: (R): Resistant;; (I): Intermediate;; (S): Sensitive (Interpretation as per CLSI recommendations, 2010)

The test system of one assay is E. coli M-138. The text has this: (§1) Antibacterial activity of cefepime combination with tazobactam against various bacterial strains, including those bacteria that are known to product one or more beta-lactamase, was investigated in quantitative drug diffusion assay performed as per CLSI recommendations (Clinical and Laboratory Standards Institute (CLSI), performance Standards for Antimicrobial Susceptibility Testing, 20th Informational Supplement, M 100-S20, Volume 30, No. 1, 2010).
(§2) In a typical study, overnight grown bacterial cultures after appropriate dilution were seed inoculated in the molten, cooled agar media and plates poured. Antibacterial agents containing 6 mm diameter discs were placed on the top of the agar surface. Zone of inhibition based observation was performed after 16 to 18 hours of incubation at 35±2° C. in ambient air. These assays are routinely used in determining possibility of treating a particular infection using given antibacterial agent or a composition. In general, zone inhibition values in the sensitive(S) range indicate that the strain is susceptible to that antibacterial agent or composition. It is generally assumed that the antibacterial agent or the combination under consideration would not be effective in treating the infection, if the zone inhibition values are in the resistant (R) range.

The test system of the next assay is E. coli M50.
Source text: as §1, §2

A further assay concerns E. coli B-123.
Source text: as §1, §2

For another assay, the system named is E. coli S-112.
Source text: as §1, §2

The next assay relates to E. coli B-89.
Source text: as §1, §2

Another assay concerns E. coli 7MP.
Source text: as §1, §2

Where [1] appears, read: 6 mm discs, 16 to 18 hours at 35±2° C., tazobactam 10 mcg in the combination.
Where [2] appears, read: interpretation of zone of inhibition.

These results are taken from US20240325406A1, “ANTIBACTERIAL COMPOSITIONS” (Wockhardt Limited, priority 2016, published 2024).

Turning to `CO/N=C(\C(=O)N[C@@H]1C(=O)N2C(C(=O)[O-])=C(C[N+]3(C)CCCC3)CS[C@H]12)c1csc(N)n1` [Cefepime, cefepime], the “Zone of Inhibition” value is “Nil” in the assay on E. coli M-138 (setting [1]); 7.5 mm with E. coli M50 (setting [1]); 8 mm in the assay with E. coli B-123 (setting [1]); 17 mm with E. coli S-112 (setting [1]); 8 mm in the assay on E. coli B-89 (setting [1]); 16 mm with E. coli 7MP (setting [1]). Besides, the CLSI susceptibility interpretation entry in the assay with E. coli M-138 (setting [2]) is “R”; with E. coli M50 (setting [2]), “R”; in the assay with E. coli B-123 (setting [2]) it was “R”; in the assay with E. coli S-112 (setting [2]), “I”; in the assay with E. coli B-89 (setting [2]), “R”; in the assay on E. coli 7MP (setting [2]) it was “I”.
